Structures can show the parent of a compound that is named as a salt. Where two headings read alike, the source gives them in different places.
Legend:
HTT mRNA = assay: Splicing RT-qPCR assay, HTT canonical (CJ) and alternative (AJ) junction mRNA; format: cell-based, human; details: Homo sapiens; for IC50: canonical junction mRNA; for AC50: alternative junction mRNA, read-out: HTT AJ (AC50, increase in AJ mRNA)
Method: (§1) Compounds described herein were used to modulate RNA transcript abundance in cells. The expression of a target mRNA was measured by detecting the formation of an exon-exon junction in the canonical transcript (CJ). A compound mediated exon-inclusion event was detected by observing an increase in formation of a new junction with an alternative exon (AJ). Real-time qPCR assays were used to detect these splicing switches and interrogate the potency of various compounds towards different target genes. A high-throughput real time quantitative PCR (RT-qPCR) assay was developed to measure these two isoforms of the mRNA (CJ and AJ) for exemplary genes, such as HTT, SMN2, and MYB, together with a control housekeeping gene, GAPDH or GUSB or PPIA, used for normalization. Briefly, the A673 or K562 cell line was treated with various compounds described herein (e.g., compounds of Formula (D). After treatment, the levels of the HTT, MYB, or SMN2 mRNA targets were determined from each sample of cell lysate by cDNA synthesis followed by qPCR.
(§2) • Cells-to-CT 1-step kit: ThermoFisher A25602, Cells-to-CT lysis reagent: ThermoFisher 4391851C, TaqMan™ Fast Virus 1-Step Master Mix: ThermoFisher 4444436 • GAPDH: VIC-PL, ThermoFisher 4326317E (Assay: Hs99999905_m1)—used for K562/suspension cell lines • GUSB: VIC-PL, ThermoFisher 4326320E (Assay: Hs99999908_m1)—used for K562/suspension cell lines • PPIA: VIC-PL, ThermoFisher 4326316E (Assay: Hs99999904_m1)—used for A673/adherent cell lines
(§3) The A673 cell line was cultured in DMEM with 10% FBS. Cells were diluted with full growth media and plated in a 96-well plate (15,000 cells in 100 ul media per well). The plate was incubated at 37° C. with 5% CO2 for 24 hours to allow cells to adhere. An 11-point 3-fold serial dilution of the compounds was made in DMSO then diluted in media in an intermediate plate. Compounds were transferred from the intermediate plate to the cell plate with the top dose at a final concentration of 10 uM in the well. Final DMSO concentration was kept at or below 0.25%. The cell plate was returned to the incubator at 37° C. with 5% CO2 for an additional 24 hours.
(§4) The K562 cell line was cultured in IMDM with 10% FBS. For K562, cells were diluted with full growth media and plated in either a 96-well plate (50,000 cells in 50 uL media per well) or a 384-well plate (8,000-40,000 cells in 45 uL media per well). An 11-point 3-fold serial dilution of the compounds were made in DMSO then diluted in media in an intermediate plate. Compound was transferred from the intermediate plate to the cell plate with the top dose at a final concentration of 10 uM in the well. Final DMSO concentration was kept at or below 0.25%. Final volume was 100 uL for 96-well plate and 50 uL for 384-well plate. The cell plate was then placed in an incubator at 37° C. with 5% CO2 for 24 hours.
(§5) The cells were then gently washed with 50 uL-100 uL cold PBS before proceeding to addition of lysis buffer. 30 uL-50 μL of room temperature lysis buffer with DNAse I (and optionally RNAsin) was added to each well. Cells were shaken/mixed thoroughly at room temperature for 5-10 minutes for lysis to take place and then 3 uL-5 μL of room temperature stop solution was added and wells were shaken/mixed again. After 2-5 minutes, the cell lysate plate was transferred to ice for RT-qPCR reaction setup. The lysates could also be frozen at −80° C. for later use.
(§6) In some cases, a direct lysis buffer was used. An appropriate volume of 3× lysis buffer (10 mM Tris, 150 mM NaCl, 1.5%-2.5% Igepal and 0.1-1 U/uL RNAsin, pH 7.4) was directly added to either K562 or A673 cells in media and mixed by pipetting 3 times. The plates were then incubated at room temperature with shaking/rocking for 20-50 minutes to allow for lysis to take place. After this time, the cell lysate plate was transferred to ice to set up for the RT-qPCR reactions. The lysates could also be frozen at −80° C. for later use. […]

MYB mRNA = assay: Splicing RT-qPCR assay, MYB canonical (CJ) and alternative (AJ) junction mRNA; format: cell-based, human; details: Homo sapiens; for IC50: canonical junction mRNA; for AC50: alternative junction mRNA, read-out: MYB AJ (AC50, increase in AJ mRNA)
Method: as §1, §2, §3, §4, §5, §6

SMN2 mRNA = assay: Splicing RT-qPCR panel, SMN2 canonical junction (CJ) mRNA; format: cell-based, human; details: Homo sapiens, read-out: SMN2 CJ (decrease in CJ mRNA levels, IC50)
Method: as §1, §3, §4, §5
(§7) In some cases, a direct lysis buffer was used. An appropriate volume of 3× lysis buffer (10 mM Tris, 150 mM NaCl, 1.5%-2.5% Igepal and 0.1-1 U/uL RNAsin, pH 7.4) was directly added to either K562 or A673 cells in media and mixed by pipetting 3 times. The plates were then incubated at room temperature with shaking/rocking for 20-50 minutes to allow for lysis to take place. After this time, the cell lysate plate was transferred to ice to set up for the RT-qPCR reactions. The lysates could also be frozen at −80° C. for later use.
(§8) To set up 10 uL RT-qPCR reactions, cell lysates were transferred to 384-well qPCR plates containing the master mix according to the table below. The plates were sealed, gently vortexed, and spun down before the run. The volumes were adjusted accordingly in some instances where the reaction was carried in 20 μL. The table below summarizes the components of the RT-qPCR reactions:
(§9) The RT-qPCR reaction was performed using a QuantStudio (ThermoFisher) under the following fast cycling conditions. […]

Target C mRNA = assay: Splicing RT-qPCR panel, Target C canonical junction (CJ) mRNA; format: cell-based, human; details: Homo sapiens, read-out: Target C CJ (decrease in CJ mRNA levels, IC50)
Method: as §1, §3, §4, §5, §7, §8, §9

K562 cells = assay: Cell viability, Cell Titer Glo 2.0 assay, K562; details: 72 hours
[1] = 24 h, RT-qPCR, A673 or K562 cells, 24 hours treatment, read-out: HTT CJ (IC50, decrease in CJ mRNA)
[2] = qPCR panel, read-out: HTT CJ (decrease in CJ mRNA levels, IC50)
[3] = RT-qPCR, A673 or K562 cells, 24 hours treatment
[4] = qPCR panel, read-out: MYB CJ (decrease in CJ mRNA levels, IC50)
[5] = RT-qPCR, A673 or K562 cells, 24 hours treatment, read-out: MYB CJ (IC50, decrease in CJ mRNA)

Q: For C[C@@H]1CN(c2cnc3nc(-c4cc5cn(C)nc5cc4O)cc(C4CC4)c3c2)C[C@H](C)N1 [Compound 364, 5-{4-cyclopropyl-6-[(3R,5S)-3,5-dimethylpiperazin-1-yl]-1,8-naphthyridin-2-yl}-2-methylindazol-6-ol hydrochloride], which IC50 (HTT mRNA; [1]) is on record?
A: Its IC50 is under 0.1 µM.

Q: And the IC50 (HTT mRNA; [2])?
A: Its IC50 is under 0.1 µM.

Q: What about the AC50 (HTT mRNA; [3]) of the same compound?
A: Its AC50 is 0.1 to 1 µM.

Q: What about the IC50 (MYB mRNA; [4]) of the same compound?
A: The IC50 was under 0.1 µM.

Q: And the AC50 (MYB mRNA; [3])?
A: The AC50 was 0.1 to 1 µM.

Q: What about the IC50 (MYB mRNA; [5]) of the same compound?
A: Its IC50 is under 0.1 µM.

Q: And the IC50 (SMN2 mRNA)?
A: Its IC50 is under 0.1 µM.

Q: What about the IC50 (Target C mRNA) of the same compound?
A: Its IC50 is 0.1 to 1 µM.

Q: What about the “Effect on Cell Viability, K562” value (K562 cells) of the same compound?
A: The value was “C (1000-9999 nM)”.

Q: Which results are given for CN(c1cnc2nc(-c3cc(F)c4nn(C)cc4c3)ccc2c1)[C@@H]1CCNC1 [Compound 366, 7-(7-fluoro-2-methylindazol-5-yl)-N-methyl-N-[(3R)-pyrrolidin-3-yl]-1,8-naphthyridin-3-amine]?
A: IC50 (HTT mRNA; [1]): > 10 µM; IC50 (HTT mRNA; [2]): > 10 µM; AC50 (HTT mRNA; [3]): > 10 µM; IC50 (MYB mRNA; [4]): 1 to 10 µM; AC50 (MYB mRNA; [3]): 0.1 to 1 µM; IC50 (MYB mRNA; [5]): 1 to 10 µM; IC50 (SMN2 mRNA): 0.1 to 1 µM; IC50 (Target C mRNA): > 10 µM; Effect on Cell Viability, K562 (K562 cells): C (1000-9999 nM)

Q: How did the IC50 (HTT mRNA; [1]) turn out when CN(c1cnc2nc(-c3cc(F)c4nn(C)cc4c3)ccc2c1)[C@H]1CCNC1 [Compound 367, 7-(7-fluoro-2-methylindazol-5-yl)-N-methyl-N-[(3S)-pyrrolidin-3-yl]-1,8-naphthyridin-3-amine] was run?
A: The IC50 was over 10 µM.

Q: What about the IC50 (HTT mRNA; [2]) of the same compound?
A: Its IC50 is over 10 µM.

Q: What about the AC50 (HTT mRNA; [3]) of the same compound?
A: The AC50 was over 10 µM.

Q: What about the IC50 (MYB mRNA; [4]) of the same compound?
A: Its IC50 is 1 to 10 µM.

Q: And the AC50 (MYB mRNA; [3])?
A: Its AC50 is 1 to 10 µM.

Q: And the IC50 (MYB mRNA; [5])?
A: Its IC50 is 1 to 10 µM.

Q: And the IC50 (SMN2 mRNA)?
A: Its IC50 is 0.1 to 1 µM.

Q: What about the IC50 (Target C mRNA) of the same compound?
A: The IC50 was over 10 µM.

Q: And the “Effect on Cell Viability, K562” value (K562 cells)?
A: Its value is “C (1000-9999 nM)”.

Q: How did the IC50 (HTT mRNA; [1]) turn out when COc1nc(-c2cc3cn(C)nc3c(C)c2O)nc2ncc(N3C[C@@H](C)N[C@@H](C)C3)cc12 [Compound 369] was run?
A: Its IC50 is 1 to 10 µM.

Q: And the IC50 (HTT mRNA; [2])?
A: The IC50 was 1 to 10 µM.

Q: What about the AC50 (HTT mRNA; [3]) of the same compound?
A: Its AC50 is 1 to 10 µM.

Q: What about the IC50 (MYB mRNA; [4]) of the same compound?
A: The IC50 was 0.1 to 1 µM.

Q: What about the AC50 (MYB mRNA; [3]) of the same compound?
A: The AC50 was 0.1 to 1 µM.

Q: What about the IC50 (MYB mRNA; [5]) of the same compound?
A: Its IC50 is 0.1 to 1 µM.

Q: And the IC50 (SMN2 mRNA)?
A: Its IC50 is under 0.1 µM.

Q: And the IC50 (Target C mRNA)?
A: Its IC50 is 1 to 10 µM.

Q: What about the “Effect on Cell Viability, K562” value (K562 cells) of the same compound?
A: Its value is “B (100-1000 nM)”.

Q: CN1CCC[C@H]2CN(c3cnc4nc(-c5cc6cn(C)nc6cc5O)cc(Cl)c4c3)C[C@H]21 [Compound 372, 5-{6-[(4aS,7aS)-1-methyl-hexahydro-2H-pyrrolo[3,4-b]pyridin-6-yl]-4-chloro-1,8-naphthyridin-2-yl}-2-methylindazol-6-ol] was tested. Which IC50 (HTT mRNA; [1]) did it give?
A: The IC50 was over 10 µM.

Q: And the IC50 (HTT mRNA; [2])?
A: The IC50 was over 10 µM.

Q: And the AC50 (HTT mRNA; [3])?
A: The AC50 was over 10 µM.

Q: And the IC50 (MYB mRNA; [4])?
A: Its IC50 is 0.1 to 1 µM.

Q: What about the AC50 (MYB mRNA; [3]) of the same compound?
A: The AC50 was 0.1 to 1 µM.

Q: And the IC50 (MYB mRNA; [5])?
A: Its IC50 is 0.1 to 1 µM.

Q: And the IC50 (SMN2 mRNA)?
A: The IC50 was under 0.1 µM.

Q: And the IC50 (Target C mRNA)?
A: The IC50 was over 10 µM.

Q: What about the “Effect on Cell Viability, K562” value (K562 cells) of the same compound?
A: The value was “B (100-1000 nM)”.

Q: Which IC50 (HTT mRNA; [1]) does the source give for C[C@H]1CN(c2cnc3nc(-c4cc(F)c5nn(C)cc5c4)ccc3c2)CCN1 [Compound 373, 2-(7-fluoro-2-methylindazol-5-yl)-6-[(3S)-3-methylpiperazin-1-yl]-1,8-naphthyridine] here?
A: The IC50 was 1 to 10 µM.

Q: And the IC50 (HTT mRNA; [2])?
A: The IC50 was 1 to 10 µM.

Q: What about the AC50 (HTT mRNA; [3]) of the same compound?
A: The AC50 was 1 to 10 µM.

Q: And the IC50 (MYB mRNA; [4])?
A: The IC50 was 0.1 to 1 µM.

Q: What about the AC50 (MYB mRNA; [3]) of the same compound?
A: The AC50 was 0.1 to 1 µM.

Q: And the IC50 (MYB mRNA; [5])?
A: Its IC50 is 0.1 to 1 µM.

Q: And the IC50 (SMN2 mRNA)?
A: Its IC50 is under 0.1 µM.

Q: And the IC50 (Target C mRNA)?
A: The IC50 was 1 to 10 µM.

Q: What about the “Effect on Cell Viability, K562” value (K562 cells) of the same compound?
A: Its value is “B (100-1000 nM)”.
